According to paper PMC9101087, “A Sensitive LC-MS/MS Method for the Simultaneous Determination of Two Thia-Analogous Indirubin N-Glycosides and Indirubin-3′-Monoxime in Plasma and Cell Culture Medium” (Molecules, 2022):

Key:
[1] = system: human gastric (SNU-638) cancer cells; conditions: sulforhodamine B assay, incubation 24 h longer than the 48-h assay; cited from earlier work
[2] = system: human colon (Col2) cancer cells; conditions: sulforhodamine B assay, incubation 24 h longer than the 48-h assay; cited from earlier work
[3] = system: human breast cancer cells (MCF-7); conditions: sulforhodamine B assay, incubation 24 h longer than the 48-h assay; cited from earlier work
[4] = system: human fibrosarcoma cell line HT1080; conditions: sulforhodamine B assay, incubation 24 h longer than the 48-h assay; cited from earlier work
A549 lung cancer cells = conditions: sulforhodamine B assay, incubation 24 h longer than the 48-h assay; cited from earlier work
leukemia cells (HL60) = conditions: sulforhodamine B assay, incubation 24 h longer than the 48-h assay; cited from earlier work
[5] = Storage stability in DMEM, LC-MS/MS after DMEM extraction; assay type: physicochemical; conditions: for Stability 4 °C / Stability AS (autosampler) / Stability −20 °C / Stability BT (benchtop): 24 h; for Stability FT (freeze-thaw): freeze-thaw cycles; for Stability −80 °C 91 d: long-term freezing; for Stability BT (benchtop): room temperature
Experimental: (§1) To assess stability, low and high concentrations of all analytes were subjected to different storage conditions. […] For determination of long-term stability, samples were stored in either plasma or DMEM at –80 °C for 90 and 91 days, respectively. To measure short-term stability, samples were stored at room temperature, in an autosampler, at 4 °C, and at –20 °C for 24 h. In addition, freeze-thaw cycles were performed according to FDA guidance for the standard solutions. For comparison, at least three freshly prepared samples were prepared for each concentration level. With the exception of autosampler stability, the internal standard was always added to all samples before sample processing was started.
Regarding the medium, validation procedures were performed with high-glucose DMEM supplemented with 100 U/mL penicillin and 100 μg/mL streptomycin, but not with FBS. With the exception of selectivity, where both media (GlutaMAX™-I or UltraGlutamine^TM I supplement) were tested, only Gibco™ DMEM with GlutaMAX™-I was used for all other analytical procedures.
(§2) Liquid-liquid extraction was performed identically for plasma and DMEM samples. After addition of the 1.0 µM internal standard, 50 µL of 0.8 M alkaline carbonate buffer was added. The extraction was performed once with 890 µL ethyl acetate. Tubes were then shaken for 10 min at 1400 rpm using a Thermomixer 5436 (Eppendorf AG, Hamburg, Germany) followed by centrifugation for 5 min at 14,000 rpm using a Centrifuge 5415 C (Eppendorf AG, Hamburg, Germany). Subsequently, 850 µL of the supernatant was transferred to a new tube and evaporated to dryness for 35 min at 35 °C (8 min heating time) using a SpeedVac SPD130DLX (Thermo Fisher Scientific, Asheville, NC, USA). Reconstitution was performed with 200 µL of a acetonitrile/water/H2SO4 [3/0.5/0.5] mixture, shaken at 1400 rpm for 5 min, and centrifuged again at 14,000 rpm for 5 min. Finally, 155 µL of the sample was transferred to an LC vial and analyzed.
(§3) To assess stability, low and high concentrations of all analytes were exposed to different storage conditions. To determine long-term stability, samples were stored in either plasma or DMEM at −80 °C for 90 and 91 days, respectively. To determine short-term stability, samples were stored for 24 h on the bench at room temperature, in the autosampler, at 4 °C, and at −20 °C. In addition, freeze-thaw cycles were performed for the standard solutions according to FDA guidance. At least three freshly prepared samples per concentration level were prepared for comparison. With the exception of the stability test in the autosampler, the internal standard was always added to all samples before sample processing was started. However, to avoid concentration fluctuations due to possible degradation of the analytes, stock solutions were prepared twice a week and stored at −20 °C. Each storage condition was examined in the dark. For all conditions studied, n = 3–6 replicates were prepared.

[6] = Storage stability in human plasma, LC-MS/MS after plasma precipitation; assay type: in vitro ADME; conditions: for Stability 4 °C / Stability AS (autosampler) / Stability −20 °C / Stability BT (benchtop): 24 h; for Stability FT (freeze-thaw): freeze-thaw cycles; for Stability BT (benchtop): room temperature
Experimental: as §1
After mixing the 1.5 µM internal standard and the plasma sample, protein precipitation was commenced. Next, 190 µL of acetonitrile and 50 µL of 0.5 M sulfuric acid buffer were added. The tubes were then shaken at 1400 rpm for 5 min followed by centrifugation at 14,000 rpm for 5 min. Subsequently, 195 µL of the supernatant was transferred to an LC tube and analyzed.
as §3

[7] = as above; assay type: in vitro ADME; conditions: long-term freezing
[8] = Storage stability in human plasma, LC-MS/MS after plasma extraction; assay type: in vitro ADME; conditions: for Stability 4 °C / Stability AS (autosampler) / Stability −20 °C / Stability BT (benchtop): 24 h; for Stability FT (freeze-thaw): freeze-thaw cycles; for Stability −80 °C 90 d: long-term freezing; for Stability BT (benchtop): room temperature
Experimental: as §1, §2, §3

U138MG (glioblastoma) = experiment: WST-1 cell viability assay, 48-h incubation; assay type: cell-based, human; conditions: WST-1, 48 h
Experimental: (§4) To test the biological activity of the thia-analogous indirubin N-glycosides that are the focus of the present work, the effects of KD87 and KD85 and their non-glycosylated parent compound KD88 on the viability of various tumor cell lines were initially investigated. The corresponding analyses were performed using the cell lines A375 (melanoma), A431 (skin squamous cell carcinoma), A549 (non-small cell lung carcinoma), U251MG (glioblastoma), and U138MG (glioblastoma).
(§5) Figure 2 Effect of increasing concentrations of KD87 (A), KD85 (B), and KD88 (C) on viability of various cancer cells. A375 (melanoma; black columns), A431 (skin squamous cell carcinoma; dark grey columns), A549 (non-small cell lung carcinoma; grey columns), U251MG (glioblastoma; light grey columns), or U138MG (glioblastoma; white columns) were incubated for 48 h with the appropriate compounds or vehicle followed by determination of cell viability by WST-1 assay. Percent control represents comparison with vehicle-treated cells (100%) in the absence of test substance. Values are mean ± standard error of the mean (SEM) of n = 15 in all panels, except n = 14 for A375 and A431 cells in panel B and n = 14–15 for A375 cells in panel C, from four (A375, A431) or five (A549, U251MG, U138MG) independent experiments. * p ≤ 0.05, ** p ≤ 0.01, *** p ≤ 0.001, **** p ≤ 0.0001 vs. vehicle control; one-way ANOVA with Dunnett’s post hoc test.
(§6) The human melanoma cell line A375 (#300110; RRID:CVCL_0132) as well as the human skin epidermoid carcinoma cell line A431 (#300112; RRID:CVCL_0037) were purchased from CLS Cell Lines Service GmbH (Eppelheim, Germany). The human glioblastoma cell line U251MG (#09063001; RRID:CVCL_0021) was from Sigma-Aldrich Corporation. The human glioblastoma cell line U138MG (#ACC 291; RRID: CVCL_0020) and the human lung carcinoma cell line A549 (#ACC 107, RRID:CVCL_0023) were purchased from DSMZ (Deutsche Sammlung von Mikroorganismen und Zellkulturen GmbH, Braunschweig, Germany).
(§7) Cells were cultured in high-glucose DMEM (with GlutaMAX™-I: A375, A431; with UltraGlutamine^TM I: A549, U251MG, U138MG) supplemented with 10% heat-inactivated FBS, 100 U/mL penicillin, and 100 μg/mL streptomycin and grown in a humidified incubator at 37 °C and 5% CO2. For viability analyses, cells were seeded in 96-well plates at a density of 5000 cells per well in DMEM containing 10% heat-inactivated FBS and cultured for 24 h. All cell experiments with the specific substances were performed in serum-free DMEM supplemented with 100 U/mL penicillin and 100 μg/mL streptomycin, applied after washing the cells with DPBS. The test substances were dissolved in DMSO. The final concentration of DMSO in the incubation media of test substance- and vehicle-treated cells was 1% (v/v).
(§8) After completion of the 48-h incubation, WST-1 reagent (Sigma, Taufkirchen, Germany) was added to the cells to achieve a final dilution of 1:10, and the cells were incubated for an additional 20 min before absorbance was measured at 450 nm, reference wavelength […], using a microplate reader.

[9] = system: A431 (skin squamous cell carcinoma); experiment: WST-1 cell viability assay, 48-h incubation; assay type: cell-based, human; conditions: A431, WST-1, 48 h
Experimental: as §4, §5, §6, §7, §8

[10] = system: A549 (non-small cell lung carcinoma); experiment: WST-1 cell viability assay, 48-h incubation; assay type: cell-based, human; conditions: A549, WST-1, 48 h
Experimental: as §4, §5, §6, §7, §8

A375 (melanoma) = experiment: WST-1 cell viability assay, 48-h incubation; assay type: cell-based, human; conditions: A375, WST-1, 48 h
Experimental: as §4, §5, §6, §7, §8

U251MG (glioblastoma) = experiment: WST-1 cell viability assay, 48-h incubation; assay type: cell-based, human; conditions: WST-1, 48 h
Experimental: as §4, §5, §6, §7, §8

For `O=C1Nc2ccccc2/C1=C1/Nc2ccccc2C1=O` [indirubin], the IC50 [1] is listed as over 100 µM, the IC50 [2] is listed as over 100 µM and the IC50 [3] is listed as over 100 µM. The IC50 [4] was 42 µM, the IC50 (A549 lung cancer cells) was 31 µM and the IC50 (leukemia cells (HL60)) was over 100 µM.

In the case of `O=C1Nc2ccccc2/C1=C1/Nc2ccccc2/C1=N\O` [I3M, indirubin-3′-monoxime], the “Stability 4 °C” value ([5]; 3.0 nM) is reported as 113.8 ± 6.6%, the “Stability AS (autosampler)” value ([5]; 3.0 nM) is reported as 65.0 ± 1.3% and the “Stability −20 °C” value ([5]; 3.0 nM) is reported as 92.0 ± 1.1%. For the same compound, the “Stability FT (freeze-thaw)” value ([5]; 3.0 nM) was 100.0 ± 5.7%, the “Stability −80 °C 91 d” value ([5]; 3.0 nM) was 90.6 ± 4.5% and the “Stability BT (benchtop)” value ([5]; 3.0 nM) was 66.8 ± 2.7%. The “Stability 4 °C” value ([5]; 40 nM) was 100.4 ± 1.3%, the “Stability AS (autosampler)” value ([5]; 40 nM) was 63.6 ± 0.3% and the “Stability −20 °C” value ([5]; 40 nM) was 93.1 ± 2.5%. For the same compound, the “Stability FT (freeze-thaw)” value ([5]; 40 nM) was 99.5 ± 3.2%, the “Stability −80 °C 91 d” value ([5]; 40 nM) was 99.0 ± 2.7% and the “Stability BT (benchtop)” value ([5]; 40 nM) was 59.4 ± 2.4%. For the same compound, the “Stability 4 °C” value ([6]; 2.0 nM) was 89.7 ± 1.5%, the “Stability AS (autosampler)” value ([6]; 2.0 nM) was 124.3 ± 9.5% and the “Stability −20 °C” value ([6]; 2.0 nM) was 95.2 ± 3.7%. The “Stability FT (freeze-thaw)” value ([6]; 2.0 nM) was 104.1 ± 5.5%, the “Stability BT (benchtop)” value ([6]; 2.0 nM) was 100.1 ± 9.0% and the “Stability 4 °C” value ([6]; 167 nM) was 91.5 ± 3.3%. For the same compound, the “Stability AS (autosampler)” value ([6]; 167 nM) was 112.0 ± 6.8%, the “Stability −20 °C” value ([6]; 167 nM) was 93.7 ± 7.7% and the “Stability FT (freeze-thaw)” value ([6]; 167 nM) was 99.7 ± 7.4%. For the same compound, the “Stability BT (benchtop)” value ([6]; 167 nM) was 98.6 ± 4.3%, the “Stability −80 °C 91 d” value ([7]; 2.0 nM) was 101.0 ± 9.0% and the “Stability −80 °C 91 d” value ([7]; 167 nM) was 103.0 ± 3.6%. For the same compound, the “Stability 4 °C” value ([8]; 3.0 nM) was 95.9 ± 8.7%, the “Stability AS (autosampler)” value ([8]; 3.0 nM) was 68.0 ± 1.5% and the “Stability −20 °C” value ([8]; 3.0 nM) was 93.8 ± 1.9%. The “Stability FT (freeze-thaw)” value ([8]; 3.0 nM) was 94.9 ± 4.0%, the “Stability −80 °C 90 d” value ([8]; 3.0 nM) was 96.2 ± 7.2% and the “Stability BT (benchtop)” value ([8]; 3.0 nM) was 102.2 ± 1.8%. For the same compound, the “Stability 4 °C” value ([8]; 250 nM) was 94.6 ± 2.2%, the “Stability AS (autosampler)” value ([8]; 250 nM) was 58.5 ± 1.3% and the “Stability −20 °C” value ([8]; 250 nM) was 96.5 ± 1.6%. The “Stability FT (freeze-thaw)” value ([8]; 250 nM) was 99.7 ± 1.6%, the “Stability −80 °C 90 d” value ([8]; 250 nM) was 100.6 ± 3.0% and the “Stability BT (benchtop)” value ([8]; 250 nM) was 96.3 ± 7.3%.

For `O=C1Nc2ccccc2/C1=C1/Sc2ccccc2C1=O` [KD88, 3-[3′-oxo-benzo[b]thiophene-2′-(Z)-ylidene]-oxindole], the “cytotoxic potential (in words)” value (U138MG (glioblastoma)) was “no cytotoxic potential”, the “cytotoxic potential (in words)” value [9] was “no cytotoxic potential” and the “cytotoxic potential (in words)” value [10] was “no cytotoxic potential”. For the same compound, the “cytotoxic potential (in words)” value (A375 (melanoma)) was “no cytotoxic potential” and the “cytotoxic potential (in words)” value (U251MG (glioblastoma)) was “no cytotoxic potential”.
